Publication PMC11361645, “Characterization of the small Arabidopsis thaliana GTPase and ADP-ribosylation factor-like 2 protein TITAN 5” (Journal of Cell Science, 2024)
Changes are numbered by the printed parent chain.

Columns and labels:
Format in all cases: binding
TTN5 (TITAN 5) [1] = target: T1, TTN5 (TITAN 5) (Arabidopsis thaliana, UniProt Q9ZPX1); experiment: pull-down of GST-TTN5, bound nucleotide by HPLC; settings: GST fusion; excess free GppNHp; single experiment
T1 construct: gene ARL2
T1 sequence (Q9ZPX1 1-185 limits assumed): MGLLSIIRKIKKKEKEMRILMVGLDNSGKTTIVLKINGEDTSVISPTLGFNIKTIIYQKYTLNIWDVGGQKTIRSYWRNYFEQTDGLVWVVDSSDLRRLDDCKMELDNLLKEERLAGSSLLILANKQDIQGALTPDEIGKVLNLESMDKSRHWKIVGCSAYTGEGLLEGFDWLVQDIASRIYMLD

TTN5 (TITAN 5) [2] = target: T2, TTN5 (TITAN 5) (Arabidopsis thaliana, UniProt Q9ZPX1, Q70L); experiment: stopped-flow fluorimetry, koff/kon
T2 construct: gene ARL2
T2 sequence (Q9ZPX1 1-185 Q70L limits assumed): T1 sequence (Q9ZPX1 1-185 limits assumed) with Q70L

TTN5 (TITAN 5) [3] = target: T3, TTN5 (TITAN 5) (Arabidopsis thaliana, UniProt Q9ZPX1, T30N); experiment: stopped-flow fluorimetry, koff/kon
T3 construct: gene ARL2
T3 sequence (Q9ZPX1 1-185 T30N limits assumed): T1 sequence (Q9ZPX1 1-185 limits assumed) with T30N

TTN5 (TITAN 5) [4] = target: T1, TTN5 (TITAN 5); experiment: stopped-flow fluorimetry, koff/kon

| Kd (TTN5 (TITAN 5) [2]) [µM] | Kd (TTN5 (TITAN 5) [3]) [µM] | Kd (TTN5 (TITAN 5) [4]) [µM] | Structure (SMILES) | pull-down of GST-TTN5, bound nucleotide by HPLC (TTN5 (TITAN 5) [1]) |
| --- | --- | --- | --- | --- |
| – | – | – | Nc1nc2c(ncn2[C@@H]2O[C@H](COP(=O)(O)OP(=O)(O)NP(=O)(O)O)[C@@H](O)[C@H]2O)c(=O)[nH]1 [GppNHp] | Isolated GST–TTN5 bound to increasing amounts of GppNHp |
| 0.061 | 3.09 | 0.267 | CNc1ccccc1C(=O)O[C@H]1C[C@H](n2cnc3c(=O)[nH]c(N)nc32)O[C@@H]1COP(=O)(O)OP(=O)(O)O [mdGDP, 2-deoxy-3-O-N-methylanthraniloyl GDP] | – |
